Data reported in publication PMC10483525, “Synthesis, Structural Investigations, DNA/BSA Interactions, Molecular Docking Studies, and Anticancer Activity of a New 1,4-Disubstituted 1,2,3-Triazole Derivative” (ACS Omega, 2023).

How the values were obtained:
[1] = molecular target: T1, BSA (bovine serum albumin) (Bos taurus, UniProt P02769); assay: BSA fluorescence quenching; format: binding; conditions: for Kq (bimolecular quenching constant): Ksv = kqτ0, τ0 10 ns; for ΔG: van't Hoff equation from Kbin, BSA binding
T1 construct: purchased Merck/Sigma
Method: BSA fluorescence spectral studies of the compound and related calculations were the same as those performed for the [CT-DNA + EB] quenching method described in Section 4.5. Detailed experimental procedures and the calculations of the binding data are given in the SI. […]
The quenching efficiency of the compound was analysed using the Stern-Volmer equation.
Io/I = 1 + K sv[Q] = 1 + k qτ0[Q] […]
where I o and I are the emission intensities of CT-DNA+EB complex in the absence and each […]
addition of compound, respectively and [Q] is the concentration of quencher. The Stern-Volmer […]
(quenching) constant, K sv was determined from the slope of the linear plot of I o/I versus [Q].
To have an insight into the kinetics of the competitive binding process, the bimolecular […]
quenching rate constant, k q values were also computed using the Stern-Volmer equation. […]
where n is the number of binding sites per nucleotide. 8
Fluorescence Spectral Studies
Quenching of fluorescence emission of BSA by compound was performed in order to determine […]
its binding constant. Stock concentration of BSA (5 μM) was prepared in 10 mM Tris- HCl […]
buffer at pH = 7.4. The emission spectra of 5 μM BSA solutions in the absence and presence of […]
compound of concentration ranging from 0 to 8 μM were acquired at room temperature. The […]
emission changes were recorded in the λ em range of 300 to 450 nm, with the excitation wavelength set at 280 nm. Each spectrum was recorded after an incubation time of 10 minutes.
The quenching efficiency of the compound was calculated using the Stern-Volmer equation as discussed above. The Stern-Volmer (quenching) constant, K sv was determined from the slope of the linear plot of I o/I versus [Q]. To have an insight into the kinetics of the competitive binding process, the bimolecular quenching rate constant, k q values were also computed using the same Stern Volmer equation, where τ 0 is the average fluorescence lifetime of the BSA alone is 10 nanoseconds. 9 Scatchard plots also gave the binding constant K bin as determined from the fluorescence titration using Scatchard equation. 10 The standard Gibbs free (ΔG) of compound

Caco-2 cells [2] = assay: ROS determination (flow cytometry); format: cell-based, human; conditions: Caco-2, 48 h, 0, 7.5, 1.5, and 30 μM
Method: Biosciences, San Jose, CA, USA)
The intracellular ROS generation was evaluated using The Total Reactive Oxygen Species
(ROS) Assay Kit. Caco2 cells (5x10^5 per well) were seeded in 6-well plates and were incubated for 24 h in a 37°C incubator with 5% CO2. Then cells were treated with compound 3 ([…]) for 48 h to induce production of ROS. Cells were harvested and incubated with 10 […] H2DCFDA for 30 min at 37°C incubator with 5% CO2, followed by resuspending three times with pre-warmed HBSS (2000 rpm×3 min). Total ROS levels in live cells were measured using a flow cytometry (BD Biosciences, San Jose, CA, USA).

HEK-293 = assay: MTT assay; format: cell-based, human; conditions: Homo sapiens, HEK293
Method: (§1) Human cancer cell lines (MDA-MB-231, LNCaP, Caco-2) and a human healthy cell line (HEK-293) were obtained from the European Collection of Cell Cultures. The cells were incubated in a humidified incubator (37 °C, 5% CO2) and cultured under standard conditions in Dulbecco’s modified Eagle medium (DMEM), 10% heat-inactivated fetal bovine serum, 100 U mL^–1 penicillin, 100 U mL^–1 streptomycin, and 4 mM L-glutamine. […] A cell culture medium was used to make further dilutions, while keeping the equivalent of DMF below 0.5% of the total volume.[94] […]
(§2) 7. Cell Viability Inhibition Assay
(§3) MDA-MB-231, LNCaP, Caco-2 and HEK-293 cells (5x10^3 per well) seeded in 96-well plates to assess cell viability by the 3-[4,5-dimethylthiazol-2-yl]-2,5-diphenyltetrazolium bromide (MTT) assay for 24 h at 37°C. Then cells were treated with compound 3 at different concentrations (3-100 µM) at 100μl/well. In parallel, the traditional anticancer agent cisplatin and etoposid was used as positive controls under identical conditions. After 24, 48 and 72 h incubation, 5 mg/ml MTT solution (20 μl/well) was added and cultured for another 4 h. Then, the supernatant was discarded and dimethyl sulfoxide was added (100 μl/well). The absorbance (A) was measured spectrophotometrically at 540 nm by a Microplate Reader (SpectraMax i3x).
(§4) A graph was plotted between the concentrations of the extract versus the percent viability. The […]
(§5) calculated from graph. All assays were performed in three replicates per concentration level. 11 […]

LNCaP = assay: MTT assay; format: cell-based, human; conditions: for IC50: Homo sapiens, LNCaP
Method: as §1, §2, §3, §4, §5

MDA-MB-231 = assay: MTT assay; format: cell-based, human; conditions: for IC50: Homo sapiens
Method: as §1, §2, §3, §4, §5

Caco-2 cells [3] = assay: MMP determination (TMRE, flow cytometry); format: cell-based, human; conditions: Caco-2, 48 h, 7.5, 15, 30 μM
Method: Briefly, Caco-2 (5x10^5 per well) were seeded in 6-well plates for 24 h and either untreated or treated with a various concentrations of compound 3 (7.5, 15, 30 μM) for addional 48 h.
Following treatment, cells were harvested and were incubated with 50 nM BD PharmingenTM MitoStatus TMRE for 30 min at 37°C, 5% CO2, followed by resuspending twice with pre-warmed PBS (2000 rpm×3 min). Quantitative changes in mitochondrial membrane potential (MMP) at the early stage of cell apoptosis were measured using BD PharmingenTM MitoStatus TMRE (BD Biosciences, San Jose, CA, USA) and detected by flow cytometry (BD

[4] = 48 h, SI = IC50 on normal cells/IC50 on cancer cells

T1 sequence (P02769 25-607): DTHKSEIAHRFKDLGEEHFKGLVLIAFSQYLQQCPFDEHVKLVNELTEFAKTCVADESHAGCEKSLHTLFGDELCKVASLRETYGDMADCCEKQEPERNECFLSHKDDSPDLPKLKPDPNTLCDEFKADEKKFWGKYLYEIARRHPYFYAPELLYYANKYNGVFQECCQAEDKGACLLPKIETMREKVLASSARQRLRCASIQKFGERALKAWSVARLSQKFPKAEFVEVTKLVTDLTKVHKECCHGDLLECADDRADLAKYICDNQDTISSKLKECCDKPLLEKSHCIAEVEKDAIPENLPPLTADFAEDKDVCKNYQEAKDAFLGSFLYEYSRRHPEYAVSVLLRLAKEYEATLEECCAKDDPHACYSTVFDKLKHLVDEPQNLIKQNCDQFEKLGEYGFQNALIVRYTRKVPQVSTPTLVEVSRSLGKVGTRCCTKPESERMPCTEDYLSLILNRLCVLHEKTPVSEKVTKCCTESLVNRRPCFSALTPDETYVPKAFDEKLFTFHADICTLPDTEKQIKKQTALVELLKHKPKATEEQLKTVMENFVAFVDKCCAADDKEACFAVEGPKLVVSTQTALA

With O=Cc1ccc(OCc2cn(-c3ccc(Cl)c(Cl)c3)nn2)cc1O [Compound 3, 4-((1-(3,4-Dichlorophenyl)-1H-1,2,3-triazol-4-yl)methoxy)-2-hydroxybenzaldehyde] the “quenching of BSA fluorescence intensity at ∼345 nm” value ([1]; BSA 5 μM, compound 0 to 8 μM) was 69.12%, the “red shift of BSA emission” value ([1]; BSA 5 μM, compound 0 to 8 μM) was 5 nm and the “Ksv (Stern–Volmer quenching constant)” value ([1]; BSA 5 μM, compound 0–8 μM, λex 280 nm) was 1.99 × 10^5 M^–1. The “Kq (bimolecular quenching constant)” value ([1]; BSA) was 1.99 × 10^13 M^–1·s^–1, the “Kq (bimolecular quenching constant)” value ([1]; BSA, listed as compound 3) was ~10^13 M^–1·s^–1 and the “n (number of binding sites)” value ([1]; Scatchard equation, BSA) was 0.80. For the same compound, the Kd ([1]; Scatchard equation, BSA 5 μM, read-out: Kbin (binding constant) (converted)) was 45.9 µM, the ΔG [1] was “–24.75 kJ·mol^–1” and the ΔG ([1]; listed as compound 3) was −24.75 kJ·mol^–1. For the same compound, the “ROS production (fluorescence intensity)” value (Caco-2 cells [2]) was “increased the fluorescence intensity”, the IC50 (HEK-293; HEK-293, 24 h) was 43.95 ± 0.2 µM and the IC50 (HEK-293; HEK-293, 48 h) was 24.44 ± 0.13 µM. The IC50 (HEK-293; HEK-293, 72 h) was 17.09 ± 0.08 µM, the SI HEK-293/LNCap (LNCaP; [4]) was 1.43 and the IC50 (LNCaP; 24 h) was 44.82 ± 0.09 µM. For the same compound, the IC50 (LNCaP; 48 h) was 17.1 ± 0.26 µM, the IC50 (LNCaP; 72 h) was 10.05 ± 0.03 µM and the “SI, times higher than cisplatin” value (LNCaP; LNCap cells) was 8 times. The SI HEK-293/MDA-MB-231 (MDA-MB-231; [4]) was 2.3, the IC50 (MDA-MB-231; MDA-MB-231, 24 h) was 65.03 ± 0.31 µM and the IC50 (MDA-MB-231; MDA-MB-231, 48 h) was 10.64 ± 0.03 µM. For the same compound, the IC50 (MDA-MB-231; MDA-MB-231, 72 h) was 8.39 ± 0.04 µM, the melting point was 144 to 145 °C and the “loss of mitochondrial membrane potential (MMP)” value (Caco-2 cells [3]) was “significant increase in MMP loss”.
